In publication PMC8296573, “Synthesis and Biological Evaluation of Fingolimod Derivatives as Antibacterial Agents” (ACS Omega, 2021):
Where two headings read alike, the source gives them in different places.

Legend:
A. baumannii NCTC 13423 = test: Antibacterial activity, pre-exposure; assay type: cell-based, Acinetobacter baumannii; settings: for Average inhibition %, biofilms biomass / Average inhibition %, biofilms viability / Average inhibition %, planktonic cells turbidity / Average inhibition %, planktonic cells viability: A. baumannii NCTC 13423, pre-exposure, ± SD
Summary of the method: (§1)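 Bacteria and compound were co-incubated from the start for 18 h at 37 °C, 220 rpm. Planktonic cells scored by turbidity plus resazurin reduction; washed biofilms scored by 20 μM resazurin (30, 60, 90 min for S. aureus, A. baumannii, P. aeruginosa) and ethanol-fixed crystal violet staining.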

S. aureus ATCC 25923 [1] = test: Antibacterial activity, post-exposure on preformed 18-h-old biofilms; assay type: cell-based, Staphylococcus aureus; settings: ± SD
Summary of the method: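 Compounds were applied to preformed 18-h biofilms after medium change and left 24 h. Read-outs: planktonic OD plus resazurin fluorescence (20 μM), biofilm metabolic activity by resazurin 30 min at 37 °C, then biomass by crystal violet absorbance at 595 nm after ethanol fixation.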

S. aureus ATCC 25923 [2] = test: Antibacterial activity, pre-exposure (planktonic cells and biofilm formation); assay type: cell-based, Staphylococcus aureus; settings: for Average inhibition %, biofilms biomass / Average inhibition %, biofilms viability / Average inhibition %, planktonic cells turbidity / Average inhibition %, planktonic cells viability: ± SD
Summary of the method: as §1

P. aeruginosa ATCC 9027 = test: Antibacterial activity, pre-exposure; assay type: cell-based, Pseudomonas aeruginosa; settings: for Average inhibition %, biofilms biomass / Average inhibition %, biofilms viability / Average inhibition %, planktonic cells turbidity / Average inhibition %, planktonic cells viability: P. aeruginosa ATCC 9027, pre-exposure, ± SD
Summary of the method: as §1

## 2-Amino-2-(4-decylbenzyl)propane-1,3-diol [Compound 45]
A. baumannii NCTC 13423; 10 µM
  Average inhibition %, biofilms biomass: 0 ± 0%
  Average inhibition %, biofilms viability: 2.1 ± 3.6%
  Average inhibition %, planktonic cells turbidity: 0 ± 0%
  Average inhibition %, planktonic cells viability: 4.8 ± 2.9%
A. baumannii NCTC 13423; 15 µM
  Average inhibition %, biofilms biomass: 1 ± 1.8%
  Average inhibition %, biofilms viability: 0.5 ± 0.8%
  Average inhibition %, planktonic cells turbidity: 0 ± 0%
  Average inhibition %, planktonic cells viability: 2.8 ± 3.8%
A. baumannii NCTC 13423; 25 µM
  Average inhibition %, biofilms biomass: 0 ± 0%
  Average inhibition %, biofilms viability: 2.7 ± 4%
  Average inhibition %, planktonic cells turbidity: 0 ± 0%
  Average inhibition %, planktonic cells viability: 0 ± 0%
A. baumannii NCTC 13423; 50 µM
  Average inhibition %, biofilms biomass: 0.7 ± 1.3%
  Average inhibition %, biofilms viability: 6.5 ± 7.4%
  Average inhibition %, planktonic cells turbidity: 0 ± 0%
  Average inhibition %, planktonic cells viability: 0 ± 0%
A. baumannii NCTC 13423; pre-exposure, Inactive = no activity up to 50 μM, > = some inhibition but no MIC reached
  MIC A. baumannii NCTC 13423: Inactive
S. aureus ATCC 25923 [1]; 25 µM
  Average inhibition %, biofilms biomass: 36.9 ± 3%
  Average inhibition %, biofilms viability: 15.5 ± 10.9%
  Average inhibition %, planktonic cells turbidity: 9.2 ± 8.6%
  Average inhibition %, planktonic cells viability: 1 ± 1.7%
S. aureus ATCC 25923 [1]; 50 µM
  Average inhibition %, biofilms biomass: 39.5 ± 9%
  Average inhibition %, biofilms viability: 25.2 ± 5.5%
  Average inhibition %, planktonic cells turbidity: 28.1 ± 16.3%
  Average inhibition %, planktonic cells viability: 22.5 ± 18.5%
S. aureus ATCC 25923 [1]; 100 µM
  Average inhibition %, biofilms biomass: 51.3 ± 5.8%
  Average inhibition %, biofilms viability: 23.1 ± 10.2%
  Average inhibition %, planktonic cells turbidity: 45.7 ± 12.8%
  Average inhibition %, planktonic cells viability: 59.7 ± 16.4%
S. aureus ATCC 25923 [1]; 200 µM
  Average inhibition %, biofilms biomass: 47.7 ± 12.7%
  Average inhibition %, biofilms viability: 17.1 ± 16.5%
  Average inhibition %, planktonic cells turbidity: 53.9 ± 18.7%
  Average inhibition %, planktonic cells viability: 70.7 ± 12.5%
S. aureus ATCC 25923 [2]; lowest concentration with no visible growth (>90% inhibition of turbidity and viability of planktonic cells), 18 h
  MIC S. aureus ATCC 25923: 5 to 10 µM
S. aureus ATCC 25923 [2]; lowest concentration with no visible growth (>90% inhibition of turbidity and viability of planktonic cells), 18 h, read-out: MIC S. aureus ATCC 25923
  MIC: 10 µM
S. aureus ATCC 25923 [2]; pre-exposure, 5 µM
  Average inhibition %, biofilms biomass: 45.3 ± 46.5%
  Average inhibition %, biofilms viability: 45.4 ± 46.1%
  Average inhibition %, planktonic cells turbidity: 45.7 ± 46.9%
  Average inhibition %, planktonic cells viability: 41.5 ± 50.3%
S. aureus ATCC 25923 [2]; pre-exposure, 10 µM
  Average inhibition %, biofilms biomass: 92.5 ± 4.8%
  Average inhibition %, biofilms viability: 98.9 ± 0.5%
  Average inhibition %, planktonic cells turbidity: 99 ± 0.7%
  Average inhibition %, planktonic cells viability: 99.8 ± 0.1%
S. aureus ATCC 25923 [2]; pre-exposure, 15 µM
  Average inhibition %, biofilms biomass: 91.8 ± 4.7%
  Average inhibition %, biofilms viability: 99.7 ± 0.1%
  Average inhibition %, planktonic cells turbidity: 98.9 ± 0.7%
  Average inhibition %, planktonic cells viability: 99.7 ± 0.1%
S. aureus ATCC 25923 [2]; pre-exposure, 25 µM
  Average inhibition %, biofilms biomass: 91.8 ± 5.6%
  Average inhibition %, biofilms viability: 99.7 ± 0%
  Average inhibition %, planktonic cells turbidity: 98.6 ± 0.6%
  Average inhibition %, planktonic cells viability: 99.8 ± 0.2%
S. aureus ATCC 25923 [2]; pre-exposure, lowest value among replicates, read-out: MIC S. aureus ATCC 25923, for some replicates
  MIC: 5 µM
S. aureus ATCC 25923 [2]; supplementary molecular formula strings sheet
  MIC (S. aureus): 5 to 10 µM
P. aeruginosa ATCC 9027; 50 µM
  Average inhibition %, biofilms biomass: 5 ± 3.4%
  Average inhibition %, biofilms viability: 8.1 ± 10.9%
  Average inhibition %, planktonic cells turbidity: 31.3 ± 5.3%
  Average inhibition %, planktonic cells viability: 24.4 ± 2.7%
P. aeruginosa ATCC 9027; 100 µM
  Average inhibition %, biofilms biomass: 2.5 ± 4.4%
  Average inhibition %, biofilms viability: 4 ± 6.6%
  Average inhibition %, planktonic cells turbidity: 41.8 ± 6%
  Average inhibition %, planktonic cells viability: 30 ± 7.6%
P. aeruginosa ATCC 9027; 150 µM
  Average inhibition %, biofilms biomass: 1.6 ± 2.8%
  Average inhibition %, biofilms viability: 1.9 ± 2.9%
  Average inhibition %, planktonic cells turbidity: 39.3 ± 3.3%
  Average inhibition %, planktonic cells viability: 36.5 ± 11.5%
P. aeruginosa ATCC 9027; 200 µM
  Average inhibition %, biofilms biomass: 0 ± 0%
  Average inhibition %, biofilms viability: 0 ± 0%
  Average inhibition %, planktonic cells turbidity: 40.7 ± 6.2%
  Average inhibition %, planktonic cells viability: 22.9 ± 11.2%
P. aeruginosa ATCC 9027; pre-exposure, Inactive = no activity up to 200 μM, > = some inhibition but no MIC reached
  MIC P. aeruginosa ATCC 9027: Inactive
